Experimental findings from patent US20240150370A1, “BICYCLIC PYRIDINE DERIVATIVE” (Sumitomo Pharma Co., Ltd., priority 0001, published 2024) are described below.

Counter-ions that a name gives are not always drawn. Like-named read-outs stand apart in the source and are kept apart here.

In one data set the target is human TAAR1 receptor (Homo sapiens (Human), UniProt Q96RJ0). Kind of data set: Evaluation of agonist activity on human TAAR1 receptor (cAMP assay). It counts as cell-based. As to conditions: for activation at 0.1 µM / activation at 1 µM / activation at 10 µM: CHO, 0.5 h, read-out: TAAR1 agonist activity at each concentration (%). Here is the method:
TAAR1 is a G protein-coupled receptor that binds to G proteins (Gas), and activation of the TAAR1 receptor by agonists induces an increase in intracellular cAMP levels. Therefore, the agonist activity of the sample on the human TAAR1 receptor was evaluated using the cAMP assay method.
cAMP Hunter™ CHO-K1 TAAR1 Gs Cell Line, a cell expressing human TAAR1 receptor, was purchased. Human TAAR1-expressing CHO cells were seeded in a 96-well plate, and after culturing for 24 hours, a sample dissolved in DMSO was added and incubated at 37° C. for 30 minutes. A sample for cAMP measurement was prepared according to the cAMPHiRange kit protocol. The amount of cAMP produced by the sample was measured by time-resolved fluorescence using EnVision (excitation wavelength: 330 nm, fluorescence wavelength […]/665 nm).
Sample %=100×{(Csamp)−(Cblank)}/{(Ctyramine)−(Cblank)} • Csamp: count of sample, Ctyramine: count of 100 μM tyramine, Cblank: count of blank

Another data set deals with hERG channel (Homo sapiens (Human), UniProt Q12809). Put plainly: Evaluation of hERG channel inhibitory activity (whole-cell patch clamp, hERG-CHO cells). To be noted: autopatch clamp, read-out: hERG inhibition IC50. The format is cell-based.
Chain of hERG channel (Q12809 whole entry, the tested form may be a part): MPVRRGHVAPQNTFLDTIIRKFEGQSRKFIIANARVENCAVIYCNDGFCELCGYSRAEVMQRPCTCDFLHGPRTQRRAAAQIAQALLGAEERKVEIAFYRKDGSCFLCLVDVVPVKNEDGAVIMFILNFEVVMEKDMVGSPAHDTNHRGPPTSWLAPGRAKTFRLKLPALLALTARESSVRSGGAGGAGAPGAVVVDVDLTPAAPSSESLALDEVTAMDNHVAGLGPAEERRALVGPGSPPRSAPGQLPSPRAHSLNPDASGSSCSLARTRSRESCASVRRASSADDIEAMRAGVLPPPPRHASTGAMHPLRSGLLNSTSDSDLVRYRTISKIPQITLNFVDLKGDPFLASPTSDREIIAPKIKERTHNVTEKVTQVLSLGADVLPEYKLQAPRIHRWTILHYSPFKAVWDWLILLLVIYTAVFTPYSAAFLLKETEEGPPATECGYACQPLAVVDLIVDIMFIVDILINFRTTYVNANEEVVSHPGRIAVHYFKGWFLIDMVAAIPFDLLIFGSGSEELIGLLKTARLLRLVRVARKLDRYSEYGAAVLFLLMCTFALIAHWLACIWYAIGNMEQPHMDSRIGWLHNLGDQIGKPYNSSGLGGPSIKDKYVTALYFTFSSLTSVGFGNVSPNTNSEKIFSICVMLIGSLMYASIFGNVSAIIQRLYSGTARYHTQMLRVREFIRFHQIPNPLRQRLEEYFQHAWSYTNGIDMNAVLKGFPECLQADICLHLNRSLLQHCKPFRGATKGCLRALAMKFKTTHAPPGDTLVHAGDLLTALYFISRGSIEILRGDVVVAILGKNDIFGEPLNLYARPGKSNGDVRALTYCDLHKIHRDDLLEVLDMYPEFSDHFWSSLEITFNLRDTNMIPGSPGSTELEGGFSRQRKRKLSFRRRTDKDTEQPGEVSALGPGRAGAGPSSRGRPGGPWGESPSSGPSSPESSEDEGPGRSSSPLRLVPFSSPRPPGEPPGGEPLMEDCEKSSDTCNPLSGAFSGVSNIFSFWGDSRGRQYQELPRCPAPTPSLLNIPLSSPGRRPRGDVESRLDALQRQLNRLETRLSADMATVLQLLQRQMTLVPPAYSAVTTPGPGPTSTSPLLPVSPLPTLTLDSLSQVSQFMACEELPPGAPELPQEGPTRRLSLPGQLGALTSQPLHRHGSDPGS
[1] abbreviates: 100 nM, cAMP in human TAAR1-expressing CHO cells, relative to 100 μM tyramine.
Where [2] appears, read: 1000 nM, cAMP in human TAAR1-expressing CHO cells, relative to 100 μM tyramine.
Setting [3] is: 10000 nM, cAMP in human TAAR1-expressing CHO cells, relative to 100 μM tyramine.

Chain of human TAAR1 receptor (Q96RJ0 whole entry): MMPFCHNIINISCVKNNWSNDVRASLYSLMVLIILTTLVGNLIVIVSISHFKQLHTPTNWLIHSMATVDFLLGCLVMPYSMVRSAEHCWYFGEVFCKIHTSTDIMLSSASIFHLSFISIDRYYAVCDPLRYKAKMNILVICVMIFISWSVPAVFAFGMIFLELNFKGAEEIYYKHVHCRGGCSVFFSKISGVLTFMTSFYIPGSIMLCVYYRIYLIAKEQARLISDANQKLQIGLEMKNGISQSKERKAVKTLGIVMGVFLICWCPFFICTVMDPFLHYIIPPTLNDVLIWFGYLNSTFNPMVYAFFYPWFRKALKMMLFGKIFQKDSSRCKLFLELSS

As to `CNC[C@H]1c2nc(C)ccc2O[C@@H]1C` [Example 48], the activation at 0.1 µM at human TAAR1 receptor (setting [1]) was 38%. Also, the activation at 1 µM at human TAAR1 receptor (setting [2]) was found to be 74%. At human TAAR1 receptor (setting [3]), the activation at 10 µM amounted to 86%. At hERG channel, the IC50 is over 100 µM.
`C[C@H]1Oc2cc(Cl)cnc2[C@@H]1CN` [Example 37, 1-[(2R,3S)-6-chloro-2-methyl-2,3-dihydrofuro[3,2-b]pyridin-3-yl]methanamine dihydrochloride]: the “TAAR1 agonist activity at each concentration (%)” value on human TAAR1 receptor (100 nM, cAMP in human TAAR1-expressing CHO cells, relative to 100 μM tyramine, dihydrochloride) turned out to be 13%. Moreover, the activation at 1 µM on human TAAR1 receptor (setting [2]) is 49%. Further, the activation at 10 µM on human TAAR1 receptor (setting [3]) came to 72%. In addition, the IC50 on hERG channel is over 100 µM.
With `[2H]C([2H])([2H])NC[C@H]1c2ncc(F)cc2O[C@@H]1C` [Example 80], the activation at 0.1 µM on human TAAR1 receptor (setting [1]) is 17%. For the same molecule, the activation at 1 µM at human TAAR1 receptor (setting [2]) is 48%. Also, at human TAAR1 receptor (setting [3]), the activation at 10 µM came out at 62%.
The corresponding values for `C[C@@H]1C[C@@H](CN)c2ncc(F)cc2O1` [Example 66] are 21%, 66% and 82%.
For `CC(C)[C@H]1Oc2cccnc2[C@@H]1CN` (racemic) [Example 21], in that order: 0%, 23% and 81%.
On to `CC1(C)COc2cccnc2C1CN` (centres unmarked) [Example 53], for which, on human TAAR1 receptor, the activation at 0.1 µM came to 0%, the activation at 1 µM was found to be 3% and the activation at 10 µM was determined as 18%.
Turning to `NC[C@H]1c2ncc(Cl)cc2OC12CC2` (single isomer, unassigned) [Example 99, rel-1-[(3'S)-6′-chloro-3′H-spiro[cyclopropane-1,2′-furo[3,2-b]pyridine]-3′-yl]methanamine dihydrochloride], on human TAAR1 receptor (setting [1]), the activation at 0.1 µM was 9%. Besides, on human TAAR1 receptor (setting [2]), the activation at 1 µM came to 39%. Besides, the activation at 10 µM on human TAAR1 receptor (setting [3]) was 62%.
For `C[C@H]1Oc2c(F)ccnc2[C@@H]1CN` [Example 59], in that order: 19%, 65% and 84%.
For `[2H][C@]1(C)Oc2cccnc2[C@H]1CN` (relative stereo) [Example 95, rel-1-[(2R,3S)-2-methyl(2-^2H)-2,3-dihydrofuro[3,2-b]pyridin-3-yl]methanamine dihydrochloride], in that order: 59%, 90% and 96%.
For `[2H][C@@]1(C)Oc2cccnc2[C@H]1CN` (stereo in doubt) [Example 94, rel-1-[(2S,3R)-2-methyl(2-^2H)-2,3-dihydrofuro[3,2-b]pyridin-3-yl]methanamine dihydrochloride], in that order: 1%, 4% and 28%.
Regarding `NCC1c2nc(F)ccc2OC12CC2` (centres unmarked) [Example 82], the activation at 0.1 µM on human TAAR1 receptor (setting [1]) came to 51%. Also, the activation at 1 µM on human TAAR1 receptor (setting [2]) was determined as 92%. In addition, the activation at 10 µM on human TAAR1 receptor (setting [3]) worked out at 101%.
The corresponding values for `C[C@H]1Oc2cccnc2[C@@H]1C(C)(C)N` [Example 54] are 15%, 63% and 94%.
As for `C[C@@H]1[C@H](CN)c2ncccc2O[C@@H]1C` (racemic) [Example 62, rac-1-[(2R,3R,4R)-2,3-dimethyl-3,4-dihydro-2H-pyrano[3,2-b]pyridin-4-yl]methanamine dihydrochloride], at human TAAR1 receptor (setting [1]), the activation at 0.1 µM stood at 2%. In addition, the activation at 1 µM on human TAAR1 receptor (setting [2]) was found to be 20%. Moreover, the activation at 10 µM at human TAAR1 receptor (setting [3]) is 66%.
In the case of `Cc1ccc2c(n1)[C@H](CN)C(C)(C)O2` (single isomer, unassigned) [Example 105, dihydrochloride], the activation at 0.1 µM at human TAAR1 receptor (setting [1]) was determined as 64%. Also, the activation at 1 µM at human TAAR1 receptor (setting [2]) came to 77%. On human TAAR1 receptor (setting [3]), the activation at 10 µM was 79%.
For `NC[C@@H]1c2ncccc2OC12CC2` (single isomer, unassigned) [Example 96, rel-1-[(3′R)-3′H-spiro[cyclopropane-1,2′-furo[3,2-b]pyridine]-3′-yl]methanamine dihydrochloride], in that order: 3%, 28% and 66%.
The corresponding values for `Cc1ccc2c(n1)[C@H](CN)C1(CC1)O2` (single isomer, unassigned) [Example 101, rel-1-[(3'S)-5′-methyl-3′H-spiro[cyclopropane-1,2′-furo[3,2-b]pyridine]-3′-yl]methanamine dihydrochloride] are 62%, 79% and 84%.
For `C[C@H]1Oc2ccc(C(F)(F)F)nc2[C@@H]1CN` [Example 30], in that order: 2%, 18% and 63%.
As to `CC[C@H]1Oc2cccnc2[C@@H]1CN` (stereo in doubt) [Example 43, rel-1-[(2R,3S)-2-ethyl-2,3-dihydrofuro[3,2-b]pyridin-3-yl]methanamine dihydrochloride], at human TAAR1 receptor (setting [1]), the activation at 0.1 µM was 0%. At human TAAR1 receptor (setting [2]), the activation at 1 µM turned out to be 0%. For the same molecule, on human TAAR1 receptor (setting [3]), the activation at 10 µM was determined as 7%.
As for `C[C@@H](N)[C@H]1c2ncccc2O[C@@H]1C` [Example 56], the “TAAR1 agonist activity at each concentration (%)” value worked out at 23% on human TAAR1 receptor (setting [1]), 67% at human TAAR1 receptor (setting [2]) and 82% at human TAAR1 receptor (setting [3]).
Consider `C[C@@H]1Oc2cccnc2[C@H]1CN` [Example 19], for which the activation at 0.1 µM at human TAAR1 receptor (setting [1]) turned out to be 2%. Also, the activation at 1 µM at human TAAR1 receptor (setting [2]) came to 13%. In addition, the activation at 10 µM on human TAAR1 receptor (setting [3]) amounted to 51%.
For `NCC1CSc2cccnc21` (centres unmarked) [Example 10], in that order: 18%, 66% and 91%.
The corresponding values for `C[C@H]1C[C@@H](CN)c2ncccc2S1` (racemic) [Example 13] are 4%, 31% and 63%.
`NC[C@H]1c2nc(F)ccc2OC12CC2` (single isomer, unassigned) [Example 103, rel-1-[(3'S)-5′-fluoro-3′H-spiro[cyclopropane-1,2′-furo[3,2-b]pyridine]-3′-yl]methanamine dihydrobromide]: on human TAAR1 receptor (setting [1]), the activation at 0.1 µM worked out at 60%. Further, the activation at 1 µM on human TAAR1 receptor (setting [2]) is 84%. In addition, the activation at 10 µM at human TAAR1 receptor (setting [3]) was found to be 89%.
For `NC[C@H]1CCSc2cccnc21` (single isomer, unassigned) [Example 39, dihydrochloride], in that order: 1%, 12% and 48%.
The corresponding values for `NC[C@H]1c2ncccc2O[C@H]2CCCC[C@@H]21` (racemic) [Example 33, rac-1-[(5aS,9aR,10S)-6,7,8,9,9a,10-hexahydro-5aH-[1]benzpyrano[3,2-b]pyridine-10-yl]methanamine dihydrochloride] are 4%, 22% and 52%.
The corresponding values for `C[C@H]1COc2cccnc2[C@H]1CN` (stereo in doubt) [Example 3, rel-1-[(3R,4R)-3-methyl-3,4-dihydro-2H-pyrano[3,2-b]pyridin-4-yl]methanamine dihydrochloride] are 0%, 1% and 9%.
Regarding `Cc1ccc2c(n1)[C@@H](CN)C1(CC1)O2` (single isomer, unassigned) [Example 100, rel-1-[(3′R)-5′-methyl-3′H-spiro[cyclopropane-1,2′-furo[3,2-b]pyridine]-3′-yl]methanamine dihydrochloride], the activation at 0.1 µM at human TAAR1 receptor (setting [1]) worked out at 0%. Moreover, on human TAAR1 receptor (setting [2]), the activation at 1 µM worked out at 17%. Also, the activation at 10 µM on human TAAR1 receptor (setting [3]) came out at 50%.
For `[2H][C@]1(C)Oc2cccnc2[C@@H]1CN` (stereo in doubt) [Example 57], in that order: 32%, 72% and 79%.
As to `NCC1c2ncccc2OCC12CC2` (centres unmarked) [Example 69], on human TAAR1 receptor (setting [1]), the activation at 0.1 µM came out at 4%. Further, on human TAAR1 receptor (setting [2]), the activation at 1 µM came to 30%. For the same molecule, the activation at 10 µM at human TAAR1 receptor (setting [3]) worked out at 62%.
For `Cc1ccnc2c1CCCC2CN` (racemic) [Example 92, rac-1-(4-methyl-5,6,7,8-tetrahydroquinolin-8-yl)methanamine], in that order: 0%, 0% and 0%.
